# Key:
# [1] = test system: healthy, normal men and women; assay: Single oral dose clinical study, blood/plasma uric acid levels (Examples 1 and 4); type: in vivo, human; settings: for Mean Percent Change (blood uric acid levels): before vs 24 hours after administration
# Experimental: Five groups of 4 healthy, normal men and women received a single, oral administration of escalating doses of Compound BI (n=3 per group) or placebo capsules (n=1 per group) in a randomized, double blind clinical study. Blood uric acid levels were measured before and 24 hours after administration of study treatment. Compound BI was administered at doses of 50, 100, 200, 400 or 800 mg.
# Plasma samples taken immediately prior to and at 1, 2, 4, 6, 12 and 24 hours after a single, oral administration of a test compound to 4 healthy, normal men and women in each of three groups as described above in Example 1 were analyzed to determine uric acid levels. Compound BI (n=3 per group) or placebo capsules (n=1 per group) were administered in a randomized, double blind clinical study. Plasma samples taken at the time points indicated from patients receiving Compound BI at doses of 200, 400 or 800 mg were stored at −70° C. and analyzed at a later time.
# [2] = test system: healthy normal men and women; assay: Seven-day once/twice daily dosing clinical study, blood/plasma uric acid levels (Examples 2 and 5); type: in vivo, human; settings: for Percent Change in Uric Acid Levels Following a Single Administration of Study Treatment, Mean Percent Change: 24 hours after the first administration; for Percent Change in Uric Acid Levels Following a Daily Administration of Study Treatment for Seven Days, Mean Percent Change: after 7 consecutive days; for Effect on blood uric acid levels (in words): 400 mg twice per day or 800 mg once per day groups
# Experimental: Two groups of 8 healthy normal men and women received oral administration of either 800 mg Compound BI once per day (n=6 per group) or 400 mg Compound BI twice per day (n=6 per group) or placebo capsules (n=2 per group) in a randomized, double blind clinical study. Blood uric acid levels were measured before administration of study treatment, 24 hours after the first administration of study treatment and after 7 consecutive days of study treatment administration.
# Sixteen men and women participating in a clinical study were randomly assigned to receive either placebo capsules (n=4 subjects), 400 mg Compound BI twice per day (n=6 subjects), or 800 mg Compound BI once per day (n=6 subjects) for seven consecutive days. Plasma samples taken prior to (Time 0) and at 1, 2, 4, 9, 11, 13, 18 and 24 hours after the initial administration of the test article on Day 7 of the study were stored at −70° C. and later analyzed for uric acid. (This Example 5 is a continuation of the experiment described in Example 2.)
# [3] = test system: mice treated with the uricase inhibitor potassium oxonate; assay: Uric acid excretion in urine of mice treated with the uricase inhibitor potassium oxonate; type: in vivo, mouse; settings: for Urine Uric Acid: urine collected between 3 and 5 hours after drug; for Effect on uric acid in urine versus the Oxonate control group (in words): urine collected between 3 and 5 hours after drug administration
# From the text: The model to induce hyperuricemia involves the use of the uricase (urate oxidase) inhibitor potassium oxonate that causes a delay in the degradation of uric acid to allantoin. Humans have little or no uricase activity, so inhibition of this enzyme with potassium oxonate makes mouse uric acid processing more similar to that of humans. Male 11-week old C57/B16 mice (Harlan, Frederick, Md.) were used in the studies (8 per experimental group). Mice were receiving standard rodent chow that was removed one hour before administration of potassium oxonate. Mice were given an intraperitoneal injection (i.p.) of potassium oxonate (300 mg/kg) that was suspended in 0.5% hydroxypropylmethylcellulose (HPMC). […] Urine collection was performed at 1, 3 and 5 hours after drug treatments and uric acid was measured with a colorimetric assay (BioVision Research Products, Mountain View, Calif.).
# human URAT1 = molecular target: T1, human URAT1 (Homo sapiens, UniProt Q96S37); assay: URAT1 inhibition assay, [8-14C] urate uptake in hURAT1-HEK cells; type: cell-based; settings: 50 μM [8-14C] urate; for inhibition at 10 µM: drug concentration typically 10 micromolar, read-out: % of Inhibition (uric acid uptake)
# T1 construct: The full-length hURAT1 cDNA was obtained from the vector pCMV6-XL5 and subcloned into the expression vector pCMV6-Neo
# T1 sequence (Q96S37 1-553): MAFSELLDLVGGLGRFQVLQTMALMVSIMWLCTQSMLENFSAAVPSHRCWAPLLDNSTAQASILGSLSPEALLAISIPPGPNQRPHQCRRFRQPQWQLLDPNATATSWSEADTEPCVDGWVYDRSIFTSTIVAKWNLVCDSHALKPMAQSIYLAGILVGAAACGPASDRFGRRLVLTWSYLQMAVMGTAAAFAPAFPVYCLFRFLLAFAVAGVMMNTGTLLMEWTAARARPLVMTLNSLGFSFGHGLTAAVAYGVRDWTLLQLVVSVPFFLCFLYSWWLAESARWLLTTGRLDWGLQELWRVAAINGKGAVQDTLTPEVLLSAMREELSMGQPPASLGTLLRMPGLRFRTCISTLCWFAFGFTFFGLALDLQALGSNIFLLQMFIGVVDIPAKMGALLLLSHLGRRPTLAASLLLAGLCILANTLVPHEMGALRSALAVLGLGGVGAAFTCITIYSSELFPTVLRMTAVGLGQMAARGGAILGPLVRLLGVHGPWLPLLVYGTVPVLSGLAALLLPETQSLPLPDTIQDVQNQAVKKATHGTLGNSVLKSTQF
# Experimental: A suitable assay involves transfection of cells (e.g. human embryonic kidney cells; “HEK”) with a vector encoding human URAT1, followed by determination of the ability of transfected cells to take up radiolabeled uric acid. The activity of compounds as URAT1 inhibitors is evaluated by their ability to block uric acid uptake by transfected cells.
# Urate (50-60 mCi/mmol; American Radio Chemicals, Cat. No. ARC0513).
# Plasmid vector pCMV6-XL5 containing hURAT1 cDNA (Cat. No. SC125624) and the expression vector pCMV6-Neo (Cat. No. pCMVNEO) were obtained from OriGene Technologies, Inc. The full-length hURAT1 cDNA was obtained from the vector pCMV6-XL5 and subcloned into the expression vector pCMV6-Neo to create the hURAT1 expression plasmid pCMV6-hURAT1. The sequences were verified by automatic DNA sequencing.
# For transfection experiments, cells were plated on 60 mm dishes in 1 ml media per dish. […] Stable transfectants expressing hURAT1 (herein after referred as hURAT1-HEK cells) or cells having only the expression vector pCMV6-Neo (herein after referred as mock-HEK cells) were verified using reverse transcription polymerase chain reaction (RT-PCR) methods.
# Before the uptake assay started, the culture medium was removed and the cells were incubated for 5 min in 0.6 ml of HBSS. After that HBSS was removed, the prepared reaction solutions were added into each well and incubated for 5 min at room temperature. Then the reaction solution was removed, cells were washed twice with 0.6 ml of cold HBSS and lysed with 0.2 ml of 0.1 M NaOH for 20 min. […] Test compounds were dissolved in DMSO and the same concentration of DMSO was added into the wells of mock-HEK cells and the hURAT1-HEK cells that didn't contain test compounds. For each test compound, the uptake assay was performed 2 times and carried out in triplicate. Urate uptake of the cells for each test condition was presented as the average percent inhibition in comparison to the DMSO control. The radioactivity values obtained for the wells that contained DMSO were taken as 100% uptake of the cells. The observed concentration-percent inhibition data were fitted to a sigmoidal concentration-effect model, where: IC50^Slope=[(100*Conc^Slope)/% Inhibition]−Conc^Slope
# Additional drug concentrations were tested for determination of IC-50 values for some compounds (Table 6).
# [4] = 100 mg/kg p.o. after oxonate 300 mg/kg i.p.
structure (smiles),measurement,setting,value
"Cc1cccc(C)c1COc1cccc(C(=O)CCC(=O)O)c1 [Compound BI, 4-(3-(2,6-Dimethylbenzyloxy)phenyl)-4-oxobutyric acid]",Effect on plasma uric acid levels over 24 hours (in words),"[1]; single dose 200, 400 or 800 mg, FIG. 2","significant, dose-dependent reductions"
same,Mean Percent Change (blood uric acid levels),[1]; single oral dose 50 mg,−8.8%
same,Mean Percent Change (blood uric acid levels),[1]; single oral dose 100 mg,−13.4%
same,Mean Percent Change (blood uric acid levels),[1]; single oral dose 200 mg,−18.9%
same,Mean Percent Change (blood uric acid levels),[1]; single oral dose 400 mg,−35.0%
same,Mean Percent Change (blood uric acid levels),[1]; single oral dose 800 mg,−32.7%
same,Effect on blood uric acid levels (in words),"[1]; single oral dose 50, 100, 200, 400 or 800 mg, 24 hours","significant, dose-dependent reduction"
same,"Percent Change in Uric Acid Levels Following a Single Administration of Study Treatment, Mean Percent Change",[2]; 400 mg bid,−54.0%
same,"Percent Change in Uric Acid Levels Following a Daily Administration of Study Treatment for Seven Days, Mean Percent Change",[2]; 400 mg bid,−56.7%
same,Plasma uric acid levels at Time 0 on Day 7 compared to Time 0 on the first day and to placebo (in words),"[2]; 400 mg twice per day or 800 mg once per day for seven days, FIG. 3",significantly reduced
same,"Percent Change in Uric Acid Levels Following a Single Administration of Study Treatment, Mean Percent Change",[2]; 800 mg qd,−45.3%
same,"Percent Change in Uric Acid Levels Following a Daily Administration of Study Treatment for Seven Days, Mean Percent Change",[2]; 800 mg qd,−53.2%
same,Effect on blood uric acid levels (in words),[2]; daily administration for 7 days,significant reduction
same,Effect on blood uric acid levels (in words),[2]; single dose,significant reduction
same,Urine Uric Acid,[3]; [4],293 mg/dL
same,Effect on uric acid in urine versus the Oxonate control group (in words),[3],significant increase in excreted uric acid
same,IC50,human URAT1,950 nM
same,inhibition at 10 µM,human URAT1,86.1%
CCc1oc2ccccc2c1C(=O)c1cc(Br)c(O)c(Br)c1 [Benzbromarone],Urine Uric Acid,[3]; 30 mg/kg p.o. after oxonate 300 mg/kg i.p.,185 mg/dL
same,Urine Uric Acid,[3]; [4],173 mg/dL
same,Effect on uric acid in urine versus the Oxonate control group (in words),[3],"induced an increase in uric acid concentration in urine, though to lesser degree than Compound BI"
Oc1ncnc2[nH]ncc12 [Allopurinol],Urine Uric Acid,[3]; 20 mg/kg p.o. after oxonate 300 mg/kg i.p.,79 mg/dL
same,Effect on uric acid in urine versus the Oxonate control group (in words),[3],reduced the concentration of uric acid in urine
"O=C(O)CCC(=O)c1cccc(OCc2c(F)cccc2F)c1 [AW, 4-(3-(2,6-Difluorobenzyloxy)phenyl)-4-oxobutanoic acid]",inhibition at 10 µM,human URAT1,61.9%

# Reference: US9115072B2, “Compounds and method for reducing uric acid” (WELLSTAT THERAPEUTICS CORPORATION, priority 2008, dated 2015)
